Measurements from patent US20120003154A1, “ARYLOXYANILIDE DERIVATIVES” (priority 2009, published 2012).
Read-outs that look alike come from different tables or passages of the source. Each block holds one compound with its values, some of them ahead of it.

Experiments:
Wistar rat heart PBR = target: T1, Wistar rat heart PBR (Rattus norvegicus, UniProt P16257); assay: In vitro potency assay (competition binding against [3H]PK-11195)
T1 construct: PK-11195; from tissue; host or cells: Wistar rat heart
Method: Affinity for PBR was screened using a method adapted from Le Fur et al (Life Sci. 1983; USA 33: 449-57).
Each test compound (dissolved in 50 mM Tris-HCl, pH 7.4, 10 mM MgCl2 containing 1% DMSO) competed for binding to Wistar rat heart PBR against 0.3 nM [^3H] […] The reaction was carried out in 50 mM Tris-HCl, pH 7.4 10 mM MgCl2 for 15 minutes at 25° C.

PBR = conditions: Wilson et al Nuc. Med. Biol. 2008; cited from earlier work

Structure (SMILES): COc1ncccc1CN(C(=O)CF)c1ccccc1Oc1ccccc1 [Non-radioactive imaging agent 18, 2-Flouro-N-(2-methoxy-pyridin-3-ylmethyl)-N-(2-phenoxy-phenyl)-acetamide]
Ki (Wistar rat heart PBR): 3.77 nM

Structure (SMILES): CC(=O)N(Cc1ccccc1OCC[18F])c1cnccc1Oc1ccccc1 [[^18F]-FE-PBR28]
affinity for PBR in vitro (PBR): subnanomolar

Other lines, results leading:

Ki (Wistar rat heart PBR; read-out: Ki): 4.24 nM
Structure (SMILES): CC(=O)N(Cc1ccccc1OCCF)c1cccnc1Oc1ccccc1 [Non-radioactive imaging agent 1, N-[2(2-fluoroethoxy)benzyl]-N-(2-phenoxypyridin-3-yl)acetamide]

Ki (Wistar rat heart PBR; read-out: Ki): 1.02 nM
Structure (SMILES): CC(=O)N(Cc1cccnc1OCCF)c1ccccc1Oc1ccccc1 [Non-radioactive imaging agent 19, N-[2-(2-Fluoro-ethoxy)-pyridin-3-ylmethyl]-N-(2-phenoxy-phenyl)-acetamide]

measured potency for PBR compared with [18F]-FE-PBR28 (Wistar rat heart PBR; relative to FE-PBR28): two orders of magnitude less
Structure (SMILES): CC(=O)N(Cc1ccccc1OCC[18F])c1cccnc1Oc1ccccc1 [Imaging Agent 1]
